Among the data in ChEMBL document CHEMBL4011599, “Coumarin sulfonates: New alkaline phosphatase inhibitors; in vitro and in silico studies” (Eur J Med Chem, 2017) are IC50 and Ratio IC50 values, retold here.

The target in assay [1] is T1, Alkaline phosphatase, tissue-nonspecific isozyme (Homo sapiens, UniProt P05186).
T1 sequence (P05186 whole entry): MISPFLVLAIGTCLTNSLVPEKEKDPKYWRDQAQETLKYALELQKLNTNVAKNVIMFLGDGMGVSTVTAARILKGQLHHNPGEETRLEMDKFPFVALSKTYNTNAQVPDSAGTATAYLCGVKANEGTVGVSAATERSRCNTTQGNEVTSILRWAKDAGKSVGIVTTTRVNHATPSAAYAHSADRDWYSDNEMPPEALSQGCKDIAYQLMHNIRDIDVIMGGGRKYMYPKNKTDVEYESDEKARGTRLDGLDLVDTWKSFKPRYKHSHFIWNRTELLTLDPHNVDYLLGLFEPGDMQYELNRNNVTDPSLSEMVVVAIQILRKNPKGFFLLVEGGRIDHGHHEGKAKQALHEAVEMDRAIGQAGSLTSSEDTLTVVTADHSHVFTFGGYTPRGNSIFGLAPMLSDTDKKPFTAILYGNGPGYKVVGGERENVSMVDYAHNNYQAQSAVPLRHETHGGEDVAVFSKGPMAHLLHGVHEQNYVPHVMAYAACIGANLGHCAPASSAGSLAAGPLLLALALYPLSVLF
Description: Inhibition of human TNAP using CDP-star as substrate pretreated for 10 mins followed by substrate addition measured after 10 mins by […] method.

Assay [2] concerns the target T2, Intestinal-type alkaline phosphatase (Homo sapiens, UniProt P09923). Briefly: Inhibition of human IAP using CDP-star as substrate pretreated for 10 mins followed by substrate addition measured after 10 mins by […] method.
Target sequence in this assay (P09923 whole entry): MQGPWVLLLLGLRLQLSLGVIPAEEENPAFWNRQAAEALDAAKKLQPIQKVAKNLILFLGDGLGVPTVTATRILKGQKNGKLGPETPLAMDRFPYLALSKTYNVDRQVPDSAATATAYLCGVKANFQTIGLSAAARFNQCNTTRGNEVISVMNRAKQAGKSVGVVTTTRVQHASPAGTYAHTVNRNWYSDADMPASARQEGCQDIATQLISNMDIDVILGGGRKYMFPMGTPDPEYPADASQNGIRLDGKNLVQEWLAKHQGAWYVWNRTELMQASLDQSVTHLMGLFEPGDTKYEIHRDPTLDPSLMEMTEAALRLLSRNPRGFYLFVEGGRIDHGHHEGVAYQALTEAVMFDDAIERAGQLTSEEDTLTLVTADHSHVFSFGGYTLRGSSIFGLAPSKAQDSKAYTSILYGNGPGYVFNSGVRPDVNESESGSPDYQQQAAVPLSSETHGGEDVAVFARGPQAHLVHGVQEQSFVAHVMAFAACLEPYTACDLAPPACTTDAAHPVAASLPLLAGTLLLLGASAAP
The target in assay [3] is T2, Intestinal-type alkaline phosphatase. Briefly: Potency index, ratio of levamisole IC50 to compound IC50 for human IAP.
Target sequence in this assay (P09923 20-503 limits assumed): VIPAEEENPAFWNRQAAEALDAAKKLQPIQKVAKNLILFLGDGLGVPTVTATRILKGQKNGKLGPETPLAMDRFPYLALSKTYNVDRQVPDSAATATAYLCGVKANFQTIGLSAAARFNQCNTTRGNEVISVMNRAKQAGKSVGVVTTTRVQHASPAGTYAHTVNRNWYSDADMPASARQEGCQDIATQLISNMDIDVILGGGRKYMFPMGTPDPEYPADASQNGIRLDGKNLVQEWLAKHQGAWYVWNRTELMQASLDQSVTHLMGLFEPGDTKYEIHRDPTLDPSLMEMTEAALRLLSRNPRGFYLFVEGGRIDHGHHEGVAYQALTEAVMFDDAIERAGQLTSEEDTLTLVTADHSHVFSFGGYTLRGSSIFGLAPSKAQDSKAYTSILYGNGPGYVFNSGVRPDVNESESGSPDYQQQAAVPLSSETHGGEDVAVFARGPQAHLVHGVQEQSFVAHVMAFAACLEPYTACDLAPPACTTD

Take `CCS(=O)(=O)Oc1ccc2c(C)c(C#N)c(=O)oc2c1`: the IC50 result in assay [1] was “Not Active”; in assay [2] (read-out: IC50), 4060 nM.
On to `Cc1c(Cl)c(=O)oc2cc(OS(=O)(=O)c3ccccc3)ccc12`, for which the IC50 in assay [1] (read-out: IC50) amounted to 10300 nM; in assay [2] (read-out: IC50) it was 5520 nM.
The corresponding values for `Cc1c(C#N)c(=O)oc2cc(OS(=O)(=O)c3cc(Cl)ccc3Cl)ccc12` are 2470 nM and 2260 nM.
Turning to `CCCCS(=O)(=O)Oc1ccc2c(C)c(Cl)c(=O)oc2c1`, the IC50 is 1640 nM in assay [1] (read-out: IC50) and 3220 nM in assay [2] (read-out: IC50).
For `Cc1c(C#N)c(=O)oc2cc(OS(=O)(=O)c3cccc([N+](=O)[O-])c3)ccc12`, the IC50 in assay [1] (read-out: IC50) worked out at 2420 nM; in assay [2] (read-out: IC50) it was 5160 nM.
Regarding `c1ccc([C@H]2CN3CCSC3=N2)cc1` [LEVAMISOLE], in assay [2] (read-out: IC50), the IC50 worked out at 20200 nM.
With `CCCCCCCCS(=O)(=O)Oc1ccc2c(C)c(C#N)c(=O)oc2c1`, the figures for the IC50 in assay [1] (read-out: IC50) and in assay [2] (read-out: IC50) were 920 nM and 2810 nM, respectively. Besides, in assay [3], the Ratio IC50 was found to be 7.
`Cc1c(C#N)c(=O)oc2cc(OS(=O)(=O)c3ccccc3)ccc12`: the IC50 in assay [1] (read-out: IC50) is 3530 nM; in assay [2] it was “Not Active”.
Consider `N[C@@H](Cc1ccccc1)C(=O)O` [PHENYLALANINE], for which the IC50 in assay [1] (read-out: IC50) amounted to 100000 nM.
With `CCCCCCCCS(=O)(=O)Oc1ccc2c(C)cc(=O)oc2c1OS(=O)(=O)CCCCCCCC`, the IC50 in assay [1] (read-out: IC50) came to 920 nM; in assay [2] (read-out: IC50), 10300 nM.
Take `Cc1c(C#N)c(=O)oc2cc(OS(C)(=O)=O)ccc12`: the figures for the concentration for half-maximal inhibition (IC50) in assay [1] (read-out: IC50) and in assay [2] were 1990 nM and “Not Active”, respectively.
For `Cc1cc(=O)oc2cc(OS(=O)(=O)c3ccc(Cl)c([N+](=O)[O-])c3)ccc12`, the IC50 in assay [1] (read-out: IC50) came out at 2310 nM; in assay [2] (read-out: IC50) it was 2720 nM.
